# Experimental data from patent US20230082430A1 (C4 Therapeutics, Inc., priority 2019, published 2023).
# Test system: NCIH929.1 cells
# Assay: Cell viability assay for Table 2 (CellTiter-Glo 2.0, ATP quantification, 96 hr)
# Type: cell-based
# Conditions: 96 h, NCIH929.1 cell viability, 96 hr, top concentration 1 μM, 14 points half log titration; read-out: IC50
# Description: Cell Viability Assay for Table 2
# CellTiter-Glo® 2.0 Assay was purchased from Promega (Madison, Wis., USA). NCIH929.1 cell line was purchased from ATCC (Manassas, Va., USA). Cell culture flasks and 384-well microplates were acquired from VWR (Radnor, Pa., USA).
row,Structure (SMILES),IC50
1,"O=C1CCC(N2C(=O)c3cccc4c(Cc5ccc(CN6CCOCC6)cc5)ccc2c34)C(=O)N1 (stereo not drawn) [Compound 218, 3-(6-(4-(morpholinomethyl)benzyl)-2-oxobenzo[cd]indol-1(2H)-yl)piperidine-2,6-dione]",< 1 nM
2,"O=C1CCC(N2C(=O)c3cccc4c(Cc5ccc(CN6CCC7(CCCO7)CC6)cc5)cnc2c34)C(=O)N1 (stereo not drawn) [Compound 222, 3-[23-[[4-(1-oxa-8-azaspiro[4.5]decan-8-ylmethyl)phenyl]methyl]-28-oxo-31,34-diazatricyclododeca-(2),1(21),7(23),22(24),25(31)-pentaen-34-yl]piperidine-2,6-dione]",< 1 nM
3,"O=C1CCC(N2C(=O)c3cccc4c(Cc5cnn(C6CCN(C7(C8CC8)CC7)CC6)c5)ccc2c34)C(=O)N1 (stereo not drawn) [Compound 223, 3-[6-[[1-[1-(1-cyclopropylcyclopropyl)-4-piperidyl]pyrazol-4-yl]methyl]-2-oxo-benzo[cd]indol-1-yl]piperidine-2,6-dione]",< 1 nM
4,"O=C1CCC(N2C(=O)c3cccc4c(Cc5ccc(CN6CCC7(CCCCC7)CC6)cc5)ccc2c34)C(=O)N1 (stereo not drawn) [Compound 224, 3-(6-(4-((3-azaspiro[5.5]undecan-3-yl)methyl)benzyl)-2-oxobenzo[cd]indol-1(2H)-yl)piperidine-2,6-dione]",< 1 nM
5,"O=C1CCC(N2C(=O)c3cccc4c(Cc5ccc(CN6CCC7(CCCC7)CC6)cc5)ccc2c34)C(=O)N1 (stereo not drawn) [Compound 225, 3-(6-(4-((8-azaspiro[4.5]decan-8-yl)methyl)benzyl)-2-oxobenzo[cd]indol-1(2H)-yl)piperidine-2,6-dione]",< 1 nM
6,"O=C1CCC(N2C(=O)c3cccc4c(Cc5ccc(CN6CCC(c7ccccc7)CC6)cc5)ccc2c34)C(=O)N1 (stereo not drawn) [Compound 227, 3-(2-oxo-6-(4-((4-phenylpiperidin-1-yl)methyl)benzyl)benzo[cd]indol-1(2H)-yl)piperidine-2,6-dione]",< 1 nM
7,"O=C1CCC(N2C(=O)c3cccc4c(Cc5ccc(CN6CCC7(CCCCO7)CC6)cc5)ccc2c34)C(=O)N1 (stereo not drawn) [Compound 228, 3-(6-(4-((1-oxa-9-azaspiro[5.5]undecan-9-yl)methyl)benzyl)-2-oxobenzo[cd]indol-1(2H)-yl)piperidine-2,6-dione]",< 1 nM
8,"CN(Cc1ccc(Cc2ccc3c4c(cccc24)C(=O)N3C2CCC(=O)NC2=O)cc1)c1ccccc1 (stereo not drawn) [Compound 229, 3-(6-(4-((methyl(phenyl)amino)methyl)benzyl)-2-oxobenzo[cd]indol-1(2H)-yl)piperidine-2,6-dione]",< 1 nM
9,"O=C1CCC(N2C(=O)c3cccc4c(Cc5ccc(CN6CC7(COC7)C6)cc5)ccc2c34)C(=O)N1 (stereo not drawn) [Compound 230, 3-(6-(4-((2-oxa-6-azaspiro[3.3)heptan-6-yl)methyl)benzyl)-2-oxobenzo[cd]indol-1(2H)-yl)piperidine-2,6-dione]",< 1 nM
10,"C[C@@H]1CN(Cc2ccc(Cc3ccc4c5c(cccc35)C(=O)N4C3CCC(=O)NC3=O)cc2)C[C@H](C)O1 (stereo partly drawn) [Compound 231, 3-(6-(4-(((2R,6S)-2,6-dimethylmorpholino)methyl)benzyl)-2-oxobenzo[cd]indol-1(2H)-yl)piperidine-2,6-dione]",< 1 nM
11,"CC(C)(O)C1CCN(Cc2ccc(Cc3ccc4c5c(cccc35)C(=O)N4C3CCC(=O)NC3=O)cc2)CC1 (stereo not drawn) [Compound 232, 3-(6-(4-((4-(2-hydroxypropan-2-yl)piperidin-1-yl)methyl)benzyl)-2-oxobenzo[cd]indol-1(2H)-yl)piperidine-2,6-dione]",< 1 nM
12,"CC1(n2cc(Cc3ccc4c5c(cccc35)C(=O)N4C3CCC(=O)NC3=O)cn2)CCN(S(=O)(=O)C2(C)CCC2)CC1 (stereo not drawn) [Compound 233, 3-[6-[[1-[4-methyl-1-(1-methylcyclobutyl)sulfonyl-4-piperidyl]pyrazol-4-yl]methyl]-2-oxo-benzo[cd]indol-1-yl]piperidine-2,6-dione]",< 1 nM
13,"CC1(C)C(N2CCC(n3cc(Cc4ccc5c6c(cccc46)C(=O)N5C4CCC(=O)NC4=O)cn3)CC2)C1(C)C (stereo not drawn) [Compound 240, 3-(2-oxo-6-((1-(1-(2,2,3,3-tetramethylcyclopropyl)piperidin-4-yl)-1H-pyrazol-4-yl)methyl)benzo[cd]indol-1(2H)-yl)piperidine-2,6-dione]",< 1 nM
14,"CC(C)(C)OC(=O)N1CCC(C)(n2cc(C(=O)c3ccc4c5c(cccc35)C(=O)N4C3CCC(=O)NC3=O)cn2)CC1 (stereo not drawn) [Compound 241, 4-{4-[1-(2,6-Dioxo-piperidin-3-yl)-2-oxo-1,2-dihydro-benzo[cd]indole-6-carbonyl]-pyrazol-1-yl}-4-methyl-piperidine-1-carboxylic acid tert-butyl ester]",< 100 nM
15,O=C1CCC(N2C(=O)c3cccc4c(Cc5cnn(C6CCN([C@H]7CCC8(CCC8)C7)CC6)c5)ccc2c34)C(=O)N1 (stereo partly drawn) [Compound 242],< 1 nM
16,O=C1CCC(N2C(=O)c3cccc4c(Cc5cnn(C6CCN([C@@H]7CCC8(CCC8)C7)CC6)c5)ccc2c34)C(=O)N1 (stereo partly drawn) [Compound 243],< 1 nM
17,"CC1(C(=O)N2CCN(c3cnn(Cc4ccc5c6c(cccc46)C(=O)N5C4CCC(=O)NC4=O)c3)CC2)CCC1 (stereo not drawn) [Compound 246, 3-(6-((4-(4-(1-methylcyclobutane-1-carbonyl)piperazin-1-yl)-1H-pyrazol-1-yl)methyl)-2-oxobenzo[cd]indol-1(2H)-yl)piperidine-2,6-dione]",< 1 nM
18,"COC(c1cnn(C2CCN(C(=O)C3(C)CCC3)CC2)c1)c1ccc2c3c(cccc13)C(=O)N2C1CCC(=O)NC1=O (stereo not drawn) [Compound 247, 3-[6-[methoxy-[1-[1-(1-methylcyclobutanecarbonyl)-4-piperidyl]pyrazol-4-yl]methyl]-2-oxo-benzo[cd]indol-1-yl]piperidine-2,6-dione]",< 1 nM
19,"CC(C)(C)OC(=O)N1CCC(n2cc(Nc3ccc4c5c(cccc35)C(=O)N4C3CCC(=O)NC3=O)cn2)CC1 (stereo not drawn) [Compound 248, tert-butyl 4-[4-[[1-(2,6-dioxo-3-piperidyl)-2-oxo-benzo[cd]indol-6-yl]amino]pyrazol-1-yl]piperidine-1-carboxylate]",< 100 nM
20,"CC1(C(=O)N2CCC(n3cc(Nc4ccc5c6c(cccc46)C(=O)N5C4CCC(=O)NC4=O)cn3)CC2)CCC1 (stereo not drawn) [Compound 249, 3-[6-[[1-[1-(1-methylcyclobutanecarbonyl)-4-piperidyl]pyrazol-4-yl]amino]-2-oxo-benzo[cd]indol-1-yl]piperidine-2,6-dione]",< 100 nM
21,"CC(C)(C)OC(=O)N1CCC(n2cc(Nc3ccc4c5c(cccc35)C(=O)N4C3CCC(=O)NC3=O)c(Cl)n2)CC1 (stereo not drawn) [Compound 250, tert-butyl 4-[3-chloro-4-[[1-(2,6-dioxo-3-piperidyl)-2-oxo-benzo[cd]indol-6-yl]amino]pyrazol-1-yl]piperidine-1-carboxylate]",< 100 nM
22,"CC1(C(=O)N2CCC(n3cc(Nc4ccc5c6c(cccc46)C(=O)N5C4CCC(=O)NC4=O)c(Cl)n3)CC2)CCC1 (stereo not drawn) [Compound 251, 3-[6-[[3-chloro-1-[1-(1-methylcyclobutanecarbonyl)-4-piperidyl]pyrazol-4-yl]amino]-2-oxo-benzo[cd]indol-1-yl]piperidine-2,6-dione]",< 100 nM
23,"CN(c1cnn(C2CCN(C(=O)OC(C)(C)C)CC2)c1)c1ccc2c3c(cccc13)C(=O)N2C1CCC(=O)NC1=O (stereo not drawn) [Compound 252, tert-butyl 4-[4-[[1-(2,6-dioxo-3-piperidyl)-2-oxo-benzo[cd]indol-6-yl]-methyl-amino]pyrazol-1-yl]piperidine-1-carboxylate]",< 100 nM
24,"CC1(C(=O)N2CCC(n3cc(Cc4ccc5c6c(cccc46)C(=O)N5C4CCC(=O)NC4=O)c4cccnc43)CC2)CCC1 (stereo not drawn) [Compound 253, 3-[6-[[1-[1-(1-methylcyclobutanecarbonyl)-4-piperidyl]pyrrolo[2,3-b]pyridin-3-yl]methyl]-2-oxo-benzo[cd]indol-1-yl]piperidine-2,6-dione]",< 1 nM
25,"O=C1CCC(N2C(=O)c3cccc4c(Cc5ccc(CN6CCC(Oc7ccc(F)cc7)CC6)cc5)ccc2c34)C(=O)N1 (stereo not drawn) [Compound 258, 3-(6-(4-((4-(4-fluorophenoxy)piperidin-1-yl)methyl)benzyl)-2-oxobenzo[cd]indol-1(2H)-yl)piperidine-2,6-dione]",< 1 nM
26,"CC(C)(C)C[C@H]1CC[C@@H](n2cc(Cc3ccc4c5c(cccc35)C(=O)N4C3CCC(=O)NC3=O)cn2)CC1 (stereo partly drawn) [Compound 259, 3-(6-((1-((1r,4r)-4-neopentylcyclohexyl)-1H-pyrazol-4-yl)methyl)-2-oxobenzo[cd]indol-1(2H)-yl)piperidine-2,6-dione]",< 1 nM
27,"CC(C)(C)C[C@H]1CC[C@H](n2cc(Cc3ccc4c5c(cccc35)C(=O)N4C3CCC(=O)NC3=O)cn2)CC1 (stereo partly drawn) [Compound 260, 3-(6-((1-((1s,4s)-4-neopentylcyclohexyl)-1H-pyrazol-4-yl)methyl)-2-oxobenzo[cd]indol-1(2H)-yl)piperidine-2,6-dione]",< 1 nM
28,"CN(C(=O)N1CCC(n2cc(Cc3ccc4c5c(cccc35)C(=O)N4C3CCC(=O)NC3=O)cn2)CC1)C1CC1 (stereo not drawn) [Compound 261, N-cyclopropyl-4-(4-((1-(2,6-dioxopiperidin-3-yl)-2-oxo-1,2-dihydrobenzo[cd]indol-6-yl)methyl)-1H-pyrazol-1-yl)-N-methylpiperidine-1-carboxamide]",< 1 nM
29,"N#Cc1ccc(N2CCN(C3(c4ccc(Cc5ccc6c7c(cccc57)C(=O)N6C5CCC(=O)NC5=O)cc4)CC3)CC2)c(F)c1 (stereo not drawn) [Compound 262, 4-[4-(1-{4-[1-(2,6-Dioxo-piperidin-3-yl)-2-oxo-1,2-dihydro-benzo[cd]indol-6-ylmethyl]-phenyl}-cyclopropyl)-piperazin-1-yl]-3-fluoro-benzonitrile]",< 1 nM

# Same assay, conditions: NCIH929.1 cell viability, 96 hr, top concentration 1 μM, 14 points half log titration; read-out: IC50
row,Structure (SMILES),IC50
1,"O=C1CCC(N2C(=O)c3cccc4c(Cc5ccc(CN6C7COCC6C7)cc5)ccc2c34)C(=O)N1 (stereo not drawn) [Compound 226, 3-(6-(4-((3-oxa-6-azabicyclo[3.1.1]heptan-6-yl)methyl)benzyl)-2-oxobenzo[cd]indol-1(2H)-yl)piperidine-2,6-dione]",< 1 nM
